36 sequences from the OligoGym collection can be followed below.

This data set concerns the target DGAT2. The note with it: ASO.

“And” between values parts separate entries of the source, which are not always exact repeats. Identical values can stand only once. After the bases stand the sugars from the 5' end (letter, count) and the backbone: PS all phosphorothioate, else s phosphorothioate and o phosphodiester by linkage. Methylation of C is not given here. e = 2'-O-(2-methoxyethyl) (MOE); d = 2'-deoxy (DNA)

As for “AGGATGCAGGGTTACCCAGC (sugars e5 d10 e5, PS)”, the target mRNA inhibition worked out at 81% (HepG2, 2.5 µM) and 71% (HepG2, 10 µM).
For the setting “HepG2, 0.12 µM”, “TAGCCAGGTAAGGCCGTATG (sugars e2 d13 e5, PS)” yielded a target mRNA inhibition of 51%.
For the sequence “AAACCACTGTTGCTGAGCTC (sugars e5 d10 e5, PS)”, the target mRNA inhibition reads like this: (HepG2, 2.5 µM) 71% and 58%; (HepG2, 10 µM) 84% and 73%.
For “TGCAATGTTGCCATCATACT (sugars e5 d10 e5, PS)”, the target mRNA inhibition (HepG2, 2.5 µM) is 65% and 49%; the target mRNA inhibition (HepG2, 10 µM) was 91% and 83%.
Turning to “GTTGCCATCATACTAGACTA (sugars e5 d10 e5, PS)”, the target mRNA inhibition by setting is: (HepG2, 2.5 µM) 65%; (HepG2, 10 µM) 85%.
With “AAACTTAGGCATGCTTCCTC (sugars e5 d10 e5, PS)”, the target mRNA inhibition was 84% (HepG2, 2.5 µM) and 56% (HepG2, 10 µM).
For the setting “HepG2, 0.12 µM”, “ACAGGACCCACTGGAGCACT (sugars e3 d14 e3, PS)” showed a target mRNA inhibition of 61%.
Same read-out and setting: the figure for “GTCTTCACCAGCTGGATGGG (sugars e5 d10 e5, PS)” is 42%.
As to “AAAAACCACTGTTGCTGAGC (sugars e5 d10 e5, PS)”, the target mRNA inhibition was 62% (HepG2, 2.5 µM) and 92% (HepG2, 10 µM).
Taken in the same sequence, the figures for “ACCAACTCTCAGCTACTCCC (sugars e5 d10 e5, PS)” were 95% and 85%.
The sequence “TGATAGCATTGCCACTCCCA (sugars e3 d14 e3, PS)” registered a target mRNA inhibition (HepG2, 0.12 µM) of 66%.
Regarding “TGCCACTCCCATTCTTTGAA (sugars e5 d10 e5, PS)”, the target mRNA inhibition amounted to 0% (HepG2, 2.5 µM) and 62% (HepG2, 10 µM).
Take “CGCGATTCACTGAGGACCTC (sugars e5 d10 e5, PS)”: the target mRNA inhibition reads like this: (HepG2, 2.5 µM) 73% and 74%; (HepG2, 10 µM) 83% and 93%.
Regarding “ACAGCAGCAGTCTAATCCAT (sugars e5 d10 e5, PS)”, the target mRNA inhibition worked out at 57% (HepG2, 2.5 µM) and 87% (HepG2, 10 µM).
For the sequence “ATCACAATATATGGGCAAGC (sugars e5 d10 e5, PS)”, the target mRNA inhibition was 83% and 86% (HepG2, 2.5 µM); 92% and 94% (HepG2, 10 µM).
As for “GGATACTCAGAAGAGCAGTG (sugars e5 d10 e5, PS)”, the target mRNA inhibition was determined as 60% (HepG2, 2.5 µM) and 80% (HepG2, 10 µM).
“CTCCCACCTGAGTGCTGCAA (sugars e5 d10 e5, PS)”: the target mRNA inhibition was 74% (HepG2, 2.5 µM) and 90% (HepG2, 10 µM).
In turn, “ATTTCTTTTAAATAACCCAC (sugars e5 d10 e5, PS)” showed a target mRNA inhibition (HepG2, 0.12 µM) of 1%.
Still for that read-out and setting: next, “TTCAAAAAGTAGCTACTGCA (sugars e5 d10 e5, PS)”: 47%.
“CAGAAGAGCAAAGGCTTGCT (sugars e5 d10 e5, PS)”: the target mRNA inhibition turned out to be 50% (HepG2, 2.5 µM) and 94% (HepG2, 10 µM).
“GATAGCATTGCCACTCCCAT (sugars e3 d14 e3, PS)” showed a target mRNA inhibition (HepG2, 0.12 µM) of 75%.
“ATGGAGCTCAGAGACTCAGC (sugars e5 d10 e5, PS)” displayed a target mRNA inhibition (HepG2, 0.12 µM) of 78%.
Still for that read-out and setting: next, “CACCAGCTGGATGGGAAAGT (sugars e5 d10 e5, PS)”: 31%; “AGGTAAGGCCGTATGCCTGG (sugars e2 d13 e5, PS)”: 63%.
“GTAAGCCTCGGTGTCCT (sugars e3 d10 e4, PS)”: the target mRNA inhibition runs as follows: (HepG2, 2.5 µM) 62%; (HepG2, 10 µM) 79%.
As to “TCTCCTCTGCTTCTTGGGCA (sugars e5 d10 e5, PS)”, the target mRNA inhibition was 69% and 67% (HepG2, 2.5 µM); 85% and 82% (HepG2, 10 µM).
“TCACCTGCTTGTACACTTCA (sugars e5 d10 e5, PS)” yielded a target mRNA inhibition (HepG2, 0.12 µM) of 40%.
For the sequence “TCTCGAATATCCCTAATAAC (sugars e5 d10 e5, PS)”, the target mRNA inhibition runs as follows: (HepG2, 2.5 µM) 34%; (HepG2, 10 µM) 87%.
Taken in the same sequence, the figures for “GAGGCCAAGGACAGAGGTTC (sugars e5 d10 e5, PS)” were 66% and 81%.
In the case of “TGTGTGTCTTCACCAGCTGG (sugars e5 d10 e5, PS)”, the target mRNA inhibition reads like this: (HepG2, 0.12 µM) 55%; (HepG2, 2.5 µM) 28%; (HepG2, 10 µM) 73%; (HepG2, 20 µM) 94%.
For the sequence “CAGCCTGGACAAGTCCTGCC (sugars e3 d14 e3, PS)”, for the setting “HepG2, 0.12 µM”, the target mRNA inhibition came to 72%.
As to “ACCCACTGGAGCACTGAGAT (sugars e3 d14 e3, PS)”, the target mRNA inhibition (HepG2, 0.12 µM) worked out at 59%.
On the same count and under the same terms, next, “TGCAGAAGGCACCCAGGCCC (sugars e5 d10 e5, PS)”: 46%.
As for “AGGTAGAGTTCTATTGCTTC (sugars e5 d10 e5, PS)”, the target mRNA inhibition was 81% (HepG2, 2.5 µM); 88% and 92% (HepG2, 10 µM).
“CAGGACCCCGGAGTAGGCGG (sugars e2 d13 e5, PS)” registered a target mRNA inhibition (HepG2, 0.12 µM) of 76%.
With “AGAGGCCCTGGACACTGGCC (sugars e5 d10 e5, PS)”, the target mRNA inhibition (HepG2, 0.12 µM) is 32%.
